Assay results as given in ChEMBL document CHEMBL1201862, “PubChem BioAssay data set” (2004).
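Cultured in 96-well plates, cells were exposed to test compound for 48 hours across five concentrations. Abbreviation: GI50, concentration required for 50% inhibition of growth.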 Calls of active or inactive are those of the source. No stated cut-off is given here; in the data, active = GI50 up to about 1.1 µM and inactive = higher.

Key:
Assay in all cases: DTP human tumour cell line panel, 48 h
COLO 205 = system: COLO 205
EKVX = system: EKVX
HCT-116 = system: HCT-116
HCT-15 = system: HCT-15
HL-60 = system: HL-60
IGROV-1 = system: IGROV-1
KM12 = system: KM12
MOLT-4 = system: MOLT-4
Malme-3M = system: Malme-3M
NCI-H23 = system: NCI-H23
NCI-H460 = system: NCI-H460
OVCAR-4 = system: OVCAR-4
OVCAR-8 = system: OVCAR-8
SK-MEL-2 = system: SK-MEL-2
SNB-75 = system: SNB-75
SR = system: SR
SW-620 = system: SW-620
UACC-62 = system: UACC-62
A498 = system: A498

| SMILES | GI50 (COLO 205) | GI50 (EKVX) | GI50 (HCT-116) | GI50 (HCT-15) [µM] | GI50 (HL-60) | GI50 (IGROV-1) | GI50 (KM12) | GI50 (MOLT-4) | GI50 (Malme-3M) | GI50 (NCI-H23) | GI50 (NCI-H460) | GI50 (OVCAR-4) | GI50 (OVCAR-8) | GI50 (SK-MEL-2) | GI50 (SNB-75) | GI50 (SR) | GI50 (SW-620) | GI50 (UACC-62) | GI50 (A498) |
| --- | --- | --- | --- | --- | --- | --- | --- | --- | --- | --- | --- | --- | --- | --- | --- | --- | --- | --- | --- |
| CC(=O)c1cccc(NC(=O)/C(=N\NC(C)(C)C)c2c(O)c3ccccc3oc2=O)c1 | > 100 µM (inactive) | > 100 µM (inactive) | > 100 µM (inactive) | > 100 | > 100 µM (inactive) | > 100 µM (inactive) | > 100 µM (inactive) | > 100 µM (inactive) | > 100 µM (inactive) | > 100 µM (inactive) | > 100 µM (inactive) | > 100 µM (inactive) | > 100 µM (inactive) | > 100 µM (inactive) | 39.2 µM (inactive) | > 100 µM (inactive) | > 100 µM (inactive) | > 100 µM (inactive) | – |
| N#Cc1nc(C2OC(COC(=O)c3ccccc3)C(OC(=O)c3ccccc3)C2OC(=O)c2ccccc2)oc1N (centres undefined) | 61.4 µM (inactive) | 39.5 µM (inactive) | 16.5 µM (inactive) | 16.7 | 7.03 µM (inactive) | > 100 µM (inactive) | 18.3 µM (inactive) | 5.6 µM (inactive) | 84.3 µM (inactive) | 19.1 µM (inactive) | 76.4 µM (inactive) | 10.8 µM (inactive) | 46.1 µM (inactive) | 27.3 µM (inactive) | 11.3 µM (inactive) | – | 12.1 µM (inactive) | 38.7 µM (inactive) | > 100 µM (inactive) |
| Cc1c(Cl)cccc1NC(=O)/C(Cl)=C(\Cl)C(=O)O | 9.4 µM (inactive) | > 10 µM (inactive) | 14.2 µM (inactive) | 16.4 | – | 19.5 µM (inactive) | 17.3 µM (inactive) | 7.43 µM (inactive) | 17.8 µM (inactive) | 19.5 µM (inactive) | > 100 µM (inactive) | 16.9 µM (inactive) | – | 19.8 µM (inactive) | 18.7 µM (inactive) | 5.26 µM (inactive) | 19.4 µM (inactive) | 13.2 µM (inactive) | 45.1 µM (inactive) |
| CCN(CC)c1cccc2c1C1(O)CCC3(CC21)OCCCCO3 (centres undefined) | > 100 µM (inactive) | – | 49.3 µM (inactive) | 66.8 | > 100 µM (inactive) | 67.1 µM (inactive) | 57.8 µM (inactive) | > 100 µM (inactive) | > 100 µM (inactive) | > 100 µM (inactive) | 53.2 µM (inactive) | > 100 µM (inactive) | 44.9 µM (inactive) | > 100 µM (inactive) | 36.5 µM (inactive) | – | 69.3 µM (inactive) | – | 56.2 µM (inactive) |
| O=C(CC1(O)C(=O)Nc2ccccc21)c1ccccc1Cl (centres undefined) | > 100 µM (inactive) | > 100 µM (inactive) | > 100 µM (inactive) | > 100 | > 100 µM (inactive) | > 100 µM (inactive) | – | > 100 µM (inactive) | > 100 µM (inactive) | > 100 µM (inactive) | > 100 µM (inactive) | > 100 µM (inactive) | > 100 µM (inactive) | > 100 µM (inactive) | > 100 µM (inactive) | – | > 100 µM (inactive) | > 100 µM (inactive) | > 100 µM (inactive) |
| O=C(CSc1nnc(Cc2ccccc2)o1)Nc1ccc(Cl)cc1Cl | > 100 µM (inactive) | – | > 100 µM (inactive) | > 100 | > 100 µM (inactive) | > 100 µM (inactive) | > 100 µM (inactive) | > 100 µM (inactive) | > 100 µM (inactive) | > 100 µM (inactive) | > 100 µM (inactive) | > 100 µM (inactive) | > 100 µM (inactive) | > 100 µM (inactive) | > 100 µM (inactive) | – | > 100 µM (inactive) | > 100 µM (inactive) | > 100 µM (inactive) |
| CCNC(=O)O/N=C1\CCC2[C@@H]3CC=C4C[C@@H](OC5CCCCO5)CC[C@]4(C)C3CC[C@]12C (some centres undefined) | 0.964 µM (active) | 2.51 µM (inactive) | 4.8 µM (inactive) | 1.63 | – | 3.16 µM (inactive) | 3.94 µM (inactive) | 1.61 µM (inactive) | 1.02 µM (active) | 2.72 µM (inactive) | 1.93 µM (inactive) | 1.47 µM (inactive) | 3.9 µM (inactive) | 2.2 µM (inactive) | 1.91 µM (inactive) | – | 2.45 µM (inactive) | 0.733 µM (active) | 34 µM (inactive) |
| CCCCCC[C@@H]1CCC2C(CO)[C@@H](O)CC[C@@H]2C1 (some centres undefined) | 18.5 µM (inactive) | 18.2 µM (inactive) | 17.6 µM (inactive) | 19 | – | 18.2 µM (inactive) | 18.7 µM (inactive) | 18.2 µM (inactive) | 18.8 µM (inactive) | 16 µM (inactive) | 15.5 µM (inactive) | 16.3 µM (inactive) | 18.2 µM (inactive) | 26.7 µM (inactive) | 22.8 µM (inactive) | 22.5 µM (inactive) | 23.1 µM (inactive) | 21.3 µM (inactive) | – |
| Cc1cccc(NC(=O)CSc2nnc(Cc3ccccc3)o2)c1 | > 100 µM (inactive) | > 100 µM (inactive) | > 100 µM (inactive) | > 100 | > 100 µM (inactive) | > 100 µM (inactive) | > 100 µM (inactive) | > 100 µM (inactive) | > 100 µM (inactive) | > 100 µM (inactive) | > 100 µM (inactive) | > 100 µM (inactive) | > 100 µM (inactive) | > 100 µM (inactive) | 63.8 µM (inactive) | – | > 100 µM (inactive) | > 100 µM (inactive) | > 100 µM (inactive) |
| CCOC(=O)N1N=NC2C3OC(C[C@@]3(C#N)OC(C)=O)[C@H]21 (some centres undefined) | > 100 µM (inactive) | > 100 µM (inactive) | > 100 µM (inactive) | > 100 | > 100 µM (inactive) | > 100 µM (inactive) | > 100 µM (inactive) | > 100 µM (inactive) | > 100 µM (inactive) | > 100 µM (inactive) | > 100 µM (inactive) | > 100 µM (inactive) | > 100 µM (inactive) | > 100 µM (inactive) | > 100 µM (inactive) | > 100 µM (inactive) | > 100 µM (inactive) | > 100 µM (inactive) | – |
| O=C(CCCCCCCCC(=O)OCC1OC(n2cnc3c(=O)[nH]cnc32)C(O)C1O)OCC1OC(n2cnc3c(=O)[nH]cnc32)C(O)C1O (centres undefined) | > 100 µM (inactive) | > 100 µM (inactive) | > 100 µM (inactive) | > 100 | > 100 µM (inactive) | > 100 µM (inactive) | > 100 µM (inactive) | > 100 µM (inactive) | > 100 µM (inactive) | > 100 µM (inactive) | > 100 µM (inactive) | > 100 µM (inactive) | > 100 µM (inactive) | > 100 µM (inactive) | > 100 µM (inactive) | – | > 100 µM (inactive) | > 100 µM (inactive) | > 100 µM (inactive) |
| COc1cc(C(=O)NO)ccc1O | > 100 µM (inactive) | > 100 µM (inactive) | > 100 µM (inactive) | > 100 | > 100 µM (inactive) | > 100 µM (inactive) | > 100 µM (inactive) | > 100 µM (inactive) | > 100 µM (inactive) | > 100 µM (inactive) | > 100 µM (inactive) | > 100 µM (inactive) | > 100 µM (inactive) | > 100 µM (inactive) | > 100 µM (inactive) | – | > 100 µM (inactive) | > 100 µM (inactive) | > 100 µM (inactive) |
| COc1ccc(C(c2ccccc2C(=O)O)c2ccc(OC)c3ccccc23)c2ccccc12 | 13 µM (inactive) | 20.2 µM (inactive) | – | 8.63 | 7.33 µM (inactive) | 11.3 µM (inactive) | 8.15 µM (inactive) | 5.62 µM (inactive) | 13.3 µM (inactive) | > 10 µM (inactive) | – | 10.7 µM (inactive) | 10.5 µM (inactive) | – | – | – | 14.8 µM (inactive) | 4.71 µM (inactive) | 16.2 µM (inactive) |
| COC(=O)C(Cc1ccccc1)NC(=O)Cn1ccnc1[N+](=O)[O-] (centres undefined) | 77.3 µM (inactive) | > 100 µM (inactive) | – | > 100 | > 100 µM (inactive) | > 100 µM (inactive) | > 100 µM (inactive) | > 100 µM (inactive) | 31.7 µM (inactive) | > 100 µM (inactive) | > 100 µM (inactive) | > 100 µM (inactive) | > 100 µM (inactive) | > 100 µM (inactive) | 94.8 µM (inactive) | – | > 100 µM (inactive) | > 100 µM (inactive) | > 100 µM (inactive) |
| CCOC(=O)C(C(=O)Cc1ccccc1)c1ccccc1 (centres undefined) | > 100 µM (inactive) | > 100 µM (inactive) | > 100 µM (inactive) | > 100 | > 100 µM (inactive) | > 100 µM (inactive) | > 100 µM (inactive) | 87.9 µM (inactive) | > 100 µM (inactive) | > 100 µM (inactive) | > 100 µM (inactive) | > 100 µM (inactive) | > 100 µM (inactive) | > 100 µM (inactive) | 80 µM (inactive) | > 100 µM (inactive) | > 100 µM (inactive) | > 100 µM (inactive) | – |
| COC(=O)C(=O)C(CC(=O)Nc1c(C)cccc1C)C(=O)OC (centres undefined) | – | > 100 µM (inactive) | > 100 µM (inactive) | > 100 | > 100 µM (inactive) | > 100 µM (inactive) | > 100 µM (inactive) | > 100 µM (inactive) | > 100 µM (inactive) | > 100 µM (inactive) | > 100 µM (inactive) | > 100 µM (inactive) | > 100 µM (inactive) | > 100 µM (inactive) | – | > 100 µM (inactive) | > 100 µM (inactive) | > 100 µM (inactive) | – |
